Test results: PMC6076261, “A new quinoline-based chemical probe inhibits the autophagy-related cysteine protease ATG4B” (Scientific Reports, 2018)
Like-named read-outs stand apart in the source and are kept apart here.

Experiments:
[1] = biological target: T1, caspase-3 (Homo sapiens, UniProt P42574); experiment: Caspase 3 assay (Abcam inhibitor kit); format: biochemical
T1 construct: purchased Abcam ab102491
T1 sequence (P42574 29-175 limits assumed): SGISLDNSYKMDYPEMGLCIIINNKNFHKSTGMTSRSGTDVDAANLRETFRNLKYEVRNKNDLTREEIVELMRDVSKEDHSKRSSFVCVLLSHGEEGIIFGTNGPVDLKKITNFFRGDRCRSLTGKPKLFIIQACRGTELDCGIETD
T1 sequence (P42574 176-277 limits assumed): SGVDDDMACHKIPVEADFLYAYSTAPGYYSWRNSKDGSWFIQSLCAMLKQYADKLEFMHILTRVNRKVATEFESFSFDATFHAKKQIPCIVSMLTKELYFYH
Protocol: Inhibition of caspase 3 was assayed using the Abcam Caspase 3 Inhibitor Drug Detection Kit (ab102491) according to the manufacturer’s protocol.

[2] = biological target: T2, Cathepsin B (Homo sapiens, UniProt P07858); experiment: Cathepsin B assay; format: biochemical; conditions: concentrations up to 60 µM
T2 construct: Cathepsin B (human, recombinant, active - BioVision #7580-5); purchased BioVision #7580-5
Protocol: The assay was performed essentially as described by Mendieta et al.[60] with Cathepsin B (human, recombinant, active - BioVision #7580-5), Substrate Z-Arg-Arg-AMC (Sigma C5429) and 1 µM Z-VAD-FMK (Adooq #A12373) as positive inhibition control.
The assay was maintained at 37 °C and monitored every 2 min for 16 min at 348 nm/440 nm (excitation/emission).

[3] = test system: SKBR3, MCF7, JIMT1 and MDA-MB-231 cells; experiment: Endogenous LC3B-II and p62 western blot in breast cancer cell lines; format: cell-based
[4] = test system: MDA-MB-231 cells; experiment: Autophagic flux and GABARAP western blot in MDA-MB-231 cells; format: cell-based
Protocol: Corresponding mean LC3B-II/actin values were determined using densitometry analysis; error bars, SEM (n = 3). […] Autophagic flux assay using saturating (40 nM) concentrations of bafilomycin A1 (Baf A1) was applied for the assessment of LC3B-II accumulation. […] Corresponding mean LC3B-II/actin values were determined using densitometry analysis; n = 3; error bars, SEM; *p < 0.05. […] The control ATG4B-KO JIMT-1 cells showing the location of pro-LC3B are in lane 3. Samples were run on a 4–12% Bis-tris gradient gel. The banding pattern shown is representative of 3 independent experiments. […] Addition of bafilomycin A1 (Baf A1; 40 nM) or Wortmannin (1 µM) during the final 4 h of treatment had no effect. The GABARAP-II/actin values were determined using densitometry analysis; n = 3; error bars, SEM; *p < 0.05, Student’s t-test.

[5] = test system: MDA-MB-231 cells stably expressing mRFP-EGFP-LC3B; experiment: mRFP-EGFP-LC3B puncta assay of starvation-induced autophagic flux; format: cell-based; conditions: 120 µM for 48 hours; starved conditions
Excerpt: Since GFP fluorescence is quenched in acid environments, but red fluorescence is preferentially retained, autolysosomes are indicated by red puncta whereas autophagosomes are indicated by yellow puncta, or the overlap of both red and green fluorescence. In starved control scramble-siRNA treated cells, abundant red puncta were detected as expected, indicating high levels of autophagic flux (Fig. 6a). […] To determine if LV-320 affects lysosomal degradation, we performed a DQ-BSA assay. DQ-Red BSA is a self-quenched fluorescent substrate that enters the cell through endocytosis and fluoresces upon lysosomal degradation.
For each experiment, media was replenished every day after initial plating and before treatment. At the end of the experiment the cells were fixed in 4% PFA for 20 minutes and then rinsed with PBS. Cells were then mounted using SlowFade Gold Antifade with DAPI (Invitrogen). […] For each treatment, the number of green, red and yellow (i.e. red/green overlap where applicable) puncta per cell were determined for at least 100 cells. […] LTR fluorescent intensity was measured by the mean gray value from the unadjusted images taken with the same microscope settings of the LTR channel and subtracting the mean background using Image J 1.45 s (https://imagej.nih.gov/ij/) with cells counted by DRAQ5 positive nuclei.

[6] = test system: SKBR3 cells; experiment: DQ-BSA assay for lysosomal activity; format: cell-based; conditions: CQ 20 µM; LV-320 75 and 100 µM
Protocol: A DQ-BSA assay was used to determine lysosomal degradative activity as described. […] All samples contained equal concentration of DMSO (0.5%) in regular growth media (Gibco DMEM + 10% FBS + 20 mM HEPES + 1X NEAA). […] Data were analyzed using FlowJo software.

[7] = Pharmacokinetic assay, oral dosing; format: in vivo, BL/6 mice
Protocol: Blood samples (approximately 50 µL) were collected at predetermined intervals. Blood samples were placed into tubes containing sodium heparin and centrifuged at 10000 × g for 14 min to obtain the plasma samples.

[8] = In vivo autophagy assay in GFP-LC3 mice; conditions: female, GFP-LC3, mouse, 4 h after last dose, 100 or 200 mg/kg oral, 3 doses over two days
Protocol: (§1) GFP–LC3 mice were kindly provided by Dr. Mizushima (Tokyo Medical and Dental University, Japan)[67]. […]. The treatment was given by oral gavage. Four hours after the last dose the mice were terminated, blood samples were collected and the livers were harvested for the analysis.
(§2) After treatment, mouse liver tissues were collected and fixed with 4% paraformaldehyde dissolved in 0.1 M Na-phosphate buffer (pH 7.4) for 4 h, incubated overnight with 15% sucrose/PBS, and 30% sucrose/PBS for 4 h. Tissues were then embedded in OCT compound (Tissue-Tek) and stored at −80 °C. Liver OCT blocks were sectioned into 6 μm slides and countered stained with DAPI-containing mounting medium. Five randomly selected fields from each sample were examined (scorer was blinded) under 40x oil lens of the confocal microscope. Z-stack images were taken from each field with fixed settings at the laser power and exposure time for all samples. Green for GFP-LC3 and blue for nucleus (DAPI). The percentage of GFP-LC3 puncta positive cells from 5 fields were calculated for each sample; and 6 samples from each treatment condition were grouped for statistical analysis. Six animals per treatment group were used based on results in previous studies validating this method as a way to quantify GFP-LC3 puncta.

[9] = test system: GFP-LC3 mice; experiment: In vivo autophagy assay in GFP-LC3 mice; conditions: 3 doses
Protocol: as §1, §2

[10] = test system: JIMT-1 cells; experiment: LC3B-II versus pro-LC3B western blot in JIMT-1 cells; conditions: 75 µM; 24 h
Protocol: To further confirm that the increase in LC3B-II represented a block in autophagy flux, the levels of endogenous LC3B-II were quantitated in the presence and absence of bafilomycin A1 (Baf A1).
Membranes were blocked in 2% milk and incubated in primary antibodies overnight at 4 °C. Primary antibodies were diluted in 2% milk and included: p62 (1:1000; Sigma, ref: P0067), LC3B (1:1000; Abcam, ref: ab48394), GABARAP (1:1000; Abcam, ref: ab109364), beta-actin (1:10000; Abcam, ref: ab6276), and vinculin (1:1000; Abcam, ref: ab129002). Membranes were then washed with 1X PBS-T (0.1%), incubated in HRP-conjugated secondary antibodies and detected using Bio-Rad Clarity Western ECL substrate and the electronic Bio-Rad ChemiDoc MP System. Densitometry was performed using Image Lab software (Bio-Rad), and the relative levels of LC3B-II were determined by first normalizing to the actin loading controls then to the DMSO controls.

[11] = test system: osteosarcoma xenograft; parameters: method as in PMID 25483883; conditions: dosed daily at 100 mg/kg; cited from earlier work
[12] = test system: LC3; parameters: method as in PMID 25483883; conditions: cited from earlier work
[13] = biological target: T3, ATG4B (Homo sapiens, UniProt Q9Y4P1); experiment: Fluorimetric ATG4B enzymatic assay with fluorescent peptide substrate pim-FG-PABA-AMC; format: biochemical; conditions: up to 175 µM
T3 sequence (Q9Y4P1 1-393): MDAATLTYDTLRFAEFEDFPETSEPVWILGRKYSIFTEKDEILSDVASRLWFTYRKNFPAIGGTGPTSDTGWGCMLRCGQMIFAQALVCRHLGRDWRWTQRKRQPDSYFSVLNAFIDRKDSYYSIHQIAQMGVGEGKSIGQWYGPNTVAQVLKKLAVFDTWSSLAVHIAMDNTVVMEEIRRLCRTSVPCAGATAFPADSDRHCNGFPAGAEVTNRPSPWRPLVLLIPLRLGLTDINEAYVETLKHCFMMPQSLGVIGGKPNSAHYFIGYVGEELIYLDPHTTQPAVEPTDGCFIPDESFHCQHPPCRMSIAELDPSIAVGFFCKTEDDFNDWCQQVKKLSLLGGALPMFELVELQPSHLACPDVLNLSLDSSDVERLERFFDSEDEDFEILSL
Protocol: 100 μL of immobilized TCEP in deionized water was diluted in 2.50 mL of buffer (50 mM Tris, 35 mM NaCl, pH = 8). The sample was centrifuged at 10,000 × g during 1 min. The supernatant was removed. This operation was done two more times. […] The solution was incubated on a carousel at 4 °C for 1 h. This solution was then diluted with 2.06 mL of buffer (50 mM Tris, 35 mM NaCl, 5 mM EDTA, pH 8), centrifuged at 10,000 × g during 1 min and the supernatant, containing the activated ATG4B (1 µM), was kept. A 96-well all-black plate was loaded where each well was charged with 55 µL of inhibitor at different concentrations (0 µM to 100 µM or 200 µM) in buffer/DMSO 41:3 (v/v) and 20 μL of enzyme or buffer were dispensed using a dispenser (Biotek). Plate was incubated for 30 min. A single read was done using excitation and emission wavelengths of 350/450 nm. 25 µL of peptide substrate (pim-FG-PABA-AMC)[52] (final assay concentration 100 µM) was dispensed using a dispenser (Biotek). Experiments were performed in triplicate except when it is mentioned. Fluorescent reads were performed using the Synergy 4 (Biotek) at 25 °C using excitation and emission wavelengths of 350/450 nm every 15 min for 2 h.

[14] = test system: MDA-MB-231 cells; experiment: Lysotracker Red fluorescence assay; format: cell-based; conditions: CQ 40 µM, LV-320 120 µM; 24 hours
Protocol: For each experiment, media was replenished every day after initial plating and before treatment. At the end of the experiment the cells were fixed in 4% PFA for 20 minutes and then rinsed with PBS. Cells were then mounted using SlowFade Gold Antifade with DAPI (Invitrogen). For Lysotracker Red®(LTR) experiments, parental MDA-MB-231 cells were incubated with 50 µM of LTR for 5 min in the dark CO2 incubator, rinsed with PBS and fixed with 4% PFA for 20 min. Fixed cells were incubated in DRAQ5 (1:500) in PBS and 100 µg/mL RNaseA for 10 minutes at room temperature before being mounted with SlowFade Gold Antifade (Invitrogen). Leica TCS SP8 inverted confocal microscope with a Leica HC PL APO 63x/1.40 oil objective and LAS AF software (Leica) were used for imaging the cells. For each treatment, the number of green, red and yellow (i.e. red/green overlap where applicable) puncta per cell were determined for at least 100 cells. Puncta counting was performed using the OpenCV Python package; a contours discovery algorithm[66] was applied to images pre-processed by filtering colors and applying a Gaussian filter and adaptive threshold.

## O=C(O)CCSC(SCCc1ccccc1)c1ccc(/C=C/c2ccnc3cc(Cl)ccc23)cc1 (stereo not drawn) [LV-320]
[1]
  inhibition at 60 µM: 6%
[2]
  inhibition of cathepsin B: 32%
[3]
  p62 level: dose-dependent increase
[3]; all four cell lines
  concentration at which LC3B-II changes first detected: 50 to 75 µM
  endogenous LC3B-II levels: dose-dependent increase
[4]; 120 µM for 24 h
  GABARAP levels: significant decrease
[4]; 120 µM for 48 hours, Baf A1 40 nM
  autophagic flux (LC3B-II with and without Baf A1): blocks autophagic flux
[5]
  formation of red puncta (autolysosomes): significantly blocked
[6]
  DQ-Red BSA fluorescence (lysosomal degradation): no significant effect
[7]; 100 mg/kg oral
  maximum concentration in plasma: 210 ± 50 µM
[7]; 200 mg/kg oral
  maximum concentration in plasma: 280 ± 20 µM
[7]; female, BL/6, mouse, plasma, 100 and 200 mg/kg oral, read-out: time of maximum concentration
  Tmax: 1 h
[7]; oral 30, 100 and 200 mg/kg
  dose proportionality of blood levels: dose proportional up to 100 mg/kg but somewhat less so at 200 mg/kg
[8]; blood, read-out: terminal blood levels
  concentration at 4 h: 169 ± 23 µM
[8]; liver, read-out: liver levels
  concentration at 4 h: 104 ± 26 µM
[9]; 100 and 200 mg/kg oral
  toxicity of treatment regimens: did not cause significant toxicity
[9]; 100 or 200 mg/kg oral
  GFP-LC3 puncta in liver versus controls: significantly greater accumulation
  LC3B-II protein in liver versus vehicle controls: increased
[10]
  LC3B-II versus pro-LC3B accumulation: accumulation of LC3B-II but not pro-LC3B

## S=C(Nc1ccccn1)c1ccccn1 [NSC 185058, N-pyridin-2-ylpyridine-2-carbothioamide]
[11]
  tumor growth: ability to inhibit tumor growth
[12]
  activation and lipidation of LC3 in cells: inhibiting activation and lipidation of LC3 in cells

## CCN(CC)CCCC(C)Nc1ccnc2cc(Cl)ccc12 (stereo not drawn) [chloroquine, reference compound]
[13]
  inhibition of activity of purified ATG4B: did not show significant inhibition
[14]
  LTR fluorescence intensity relative to vehicle: statistically significant decrease
[6]
  DQ-Red BSA fluorescence (lysosomal degradation): significantly reduced
